Test results as given in patent publication US10011631B2, “Stapled helical peptides and methods of synthesis” (The University of Hong Kong, priority 2015, dated 2018).

Target: MAGUK GK domain
Assay: ITC binding to the MAGUK GK domain
Conditions: from ITC studies

**Q.** Which “binding affinity with the GK domain” value does the source give for “Ala-Arg-Arg-S5-Glu-Tyr-Leu-S5-Ala-Ile-Gln [compound 1]” here?
**A.** The value was “no binding affinity”.
